In patent publication US20240390360A1, “Therapeutic Combinations Of Orally Administered Paclitaxel, A P-gp Inhibitor, And A Checkpoint Inhibitor For The Treatment Of Solid Tumors” (Athenex, Inc., priority 2021, published 2024):

What was measured:
[1] = tested on: subjects with advanced solid tumours; assay type: in vivo
[2] = tested on: non-small cell lung cancer; test: Best responses of the NSCLC subjects to prior anti-PD-1/anti-PD-L1 therapy; assay type: in vivo, human; conditions: prior therapy before this study (five pembrolizumab, three nivolumab, two atezolizumab), all discontinued due to progressive disease

Molecule: COc1cc2c(cc1OC)CN(CCc1ccc(-n3nnc(-c4cc(OC)c(OC)cc4NC(=O)c4cc(=O)c5ccccc5o4)n3)cc1)CC2 [Compound A]
- recommended Phase 2 dose (RP2D) ([1]; QD Days 1-3 (Days 1-3, 8-10) for 2 weeks of a 3-week cycle, in combination with pembrolizumab): 15 mg

Molecule: atezolizumab: prior immunotherapy (anti-PD-L1) of NSCLC subjects
- best response to the prior immunotherapy: SD, number of subjects [2]: 1
- best response to the prior immunotherapy: response (non-RECIST), number of subjects [2]: 1

Molecule: pembrolizumab: checkpoint inhibitor, administered intravenously
- fatal pneumonitis, number ([1]; cohort six during cycle 8, attributed to pembrolizumab): One
